Test results: patent US12376590B2, “Compositions comprising pyridine carboxylate herbicides and azole carboxylate safeners” (Corteva Agriscience LLC, priority 2018, dated 2025)
Several values for one entry are separate records, joined by “and”; a condition that tells them apart may be missing. Equal values may be shown once.

What was measured:
Test in all cases: Greenhouse postemergence herbicidal safening trial, visual injury after 20-22 d
[1] = test system: wild buckwheat (POLCO); format: in vivo, Polygonum convolvulus
Text: (§1) Greenhouse Trial Methodology—Evaluation of Postemergence Herbicidal Safening in Crops
(§2) Seeds of the desired test plant species were planted in a 90:10% v/v (volume/volume) mixture of PRO-MIX® BX (Premier Tech Horticulture, Quakertown, PA, USA) and PROFILE® GREENS GRADE™ (Profile Products LLC, Buffalo Grove, IL, USA) planting mixture, which typically has a pH of 5.2 to 6.2 and an organic matter content of at least 50 percent, in plastic pots with a surface area of 103.2 square centimeters (cm^2). When required to ensure good germination and healthy plants, a fungicide treatment and/or other chemical or physical treatment was applied. The plants were grown for 7-36 days (d) in a greenhouse with an approximate 14-hour (h) photo-period which was maintained at about 23° C. during the day and 22° C. during the night. Nutrients and water were added on a regular basis and supplemental lighting was provided with overhead metal halide 1000-Watt lamps as necessary. The plants were employed for testing when they reached the second or third true leaf stage.
(§3) Emulsifiable concentrates of each of each pyridine carboxylate herbicide (Compound A or Compound B) were prepared at 100 grams acid equivalent per liter (g ae/L). An aliquot of each emulsifiable concentrate was placed in a 25 mL glass vial and diluted with an aqueous mixture of 1.25% (v/v) ACTIROB® B esterified rapeseed oil (Bayer Crop Science, Research Triangle Park, NC, USA) or MSO® Concentrate with LECI-TECH® methylated soybean oil (Loveland Products, Loveland, CO, USA) to obtain concentrated stock solutions at the highest application rate for each herbicide, based upon a 12 milliliter (mL) application volume at a rate of 187 liters per hectare (L/ha). The concentrated stock solutions were further diluted with an aqueous mixture of 1.25% v/v ACTIROB® B or MSO® Concentrate with LECI-TECH® to obtain stock solutions at reduced application rates for each herbicide. Spray solutions of the herbicide combinations (Compound A or Compound B plus safener) were prepared by adding weighed amounts or aliquots of the azole carboxylate safener to the stock solutions of Compound A or Compound B to form 12-mL spray solutions in two-way combinations.
(§4) The spray solutions were applied to the plant material with an overhead Mandel track sprayer equipped with 8002E nozzles calibrated to deliver 187 L/ha over an application area of 0.503 square meters (m^2) at a spray height of 18 inches (43 centimeters (cm)) above the average plant canopy. Control plants were sprayed in the same manner with the solvent blank. All herbicide (component a) application rates are given as “g ae/ha” and all safener (component b) application rates are given as “g ai/ha.”
(§5) The treated plants and control plants were placed in a greenhouse as described above and watered by sub-irrigation to prevent wash-off of the test compounds. After 20-22 d, the condition of the test plants as compared with that of the control plants was determined visually and scored on a scale of 0 to 100 percent where 0 corresponds to no injury and 100 corresponds to complete kill.

[2] = test system: wild oat (AVEFA); format: in vivo, Avena fatua
Text: as §1, §2, §3, §4, §5

[3] = test system: large crabgrass (DIGSA); format: in vivo, Digitaria sanguinalis
Text: as §1, §2, §3, §4, §5

[4] = test system: wild chamomile (MATCH); format: in vivo, Matricaria chamomilla; settings: applied alone, 20 g/ha
Text: as §1, §2, §3, §4, §5

[5] = test system: wild pansy (VIOTR); format: in vivo, Viola tricolor
Text: as §1, §2, §3, §4, §5

[6] = test system: winter rape (BRSNW); format: in vivo, Brassica napus
Text: as §1, §2, §3, §4, §5

[7] = test system: Canada horseweed (ERICA); format: in vivo, Erigeron canadensis
Text: as §1, §2, §3, §4, §5

[8] = test system: winter wheat (TRZAW); format: in vivo, Triticum aestivum
Text: as §1, §2, §3, §4, §5

[9] = test system: spring wheat (TRZAS); format: in vivo, Triticum aestivum; settings: applied alone
Text: as §1, §2, §3, §4, §5

[10] = test system: Canada thistle (CIRAR); format: in vivo, Cirsium arvense
Text: as §1, §2, §3, §4, §5

[11] = test system: velvetleaf (ABUTH); format: in vivo, Abutilon theophrasti
Text: as §1, §2, §3, §4, §5

[12] = test system: common rice (ORYSA); format: in vivo, Oryza sativa
Text: as §1, §2, §3, §4, §5

[13] = test system: barnyardgrass (ECHCG); format: in vivo, Echinochloa crus-galli
Text: as §1, §2, §3, §4, §5

[14] = test system: Italian ryegrass (LOLMU); format: in vivo, Lolium multiflorum
Text: as §1, §2, §3, §4, §5

[15] = test system: herbicide-resistant kochia (KCHSC-R); format: in vivo, Kochia scoparia
Text: as §1, §2, §3, §4, §5

[16] = test system: kochia (KCHSC); format: in vivo, Kochia scoparia
Text: as §1, §2, §3, §4, §5

[17] = test system: spring barley (HORVS); format: in vivo, Hordeum vulgare; settings: applied alone
Text: as §1, §2, §3, §4, §5

[18] = test system: maize (ZEAMX); format: in vivo, Zea mays
Text: as §1, §2, §3, §4, §5

[19] = test system: nutsedge (CYPES); format: in vivo, Cyperus esculentus
Text: as §1, §2, §3, §4, §5

[20] = test system: Chinese sprangletop (LEFCH); format: in vivo, Leptochloa chinensis
Text: as §1, §2, §3, §4, §5

[21] = test system: giant foxtail (SETFA); format: in vivo, Setaria faberi
Text: as §1, §2, §3, §4, §5

[22] = test system: common sunflower (HELAN); format: in vivo, Helianthus annuus
Text: as §1, §2, §3, §4, §5

[23] = test system: Russian thistle (SASKR); format: in vivo, Salsola kali; settings: applied alone, 20 g/ha
Text: as §1, §2, §3, §4, §5

[24] = test system: blackgrass (ALOMY); format: in vivo, Alopecurus myosuroides
Text: as §1, §2, §3, §4, §5

[25] = test system: common lambsquarters (CHEAL); format: in vivo, Chenopodium album L.
Text: as §1, §2, §3, §4, §5

[26] = test system: Johnson grass (SORHA); format: in vivo, Sorghum halepense
Text: as §1, §2, §3, §4, §5

[27] = test system: soybean (GLXMA); format: in vivo, Glycine max
Text: as §1, §2, §3, §4, §5

[28] = test system: ivyleaf morningglory (IPOHE); format: in vivo, Ipomoea hederacea
Text: as §1, §2, §3, §4, §5

[29] = test system: pigweed (AMARE); format: in vivo, Amaranthus retroflexus
Text: as §1, §2, §3, §4, §5

N#CCOC(=O)c1nc(-c2ccc3cc[nH]c3c2F)c(F)c(N)c1Cl [Compound A, cyanomethyl 4-amino-3-chloro-5-fluoro-6-(7-fluoro-1H-indol-6-yl)pyridine-2-carboxylate]
% visual injury Ob ([1]; Compound A 20 g/ha): 100% | % visual injury Ob ([1]; applied alone, 20 g/ha): 100% | % visual injury Ob ([2]; Compound A 20 g/ha): 0% | % visual injury Ob ([2]; applied alone, 20 g/ha): 0% | % visual injury Ob ([3]; Compound A 20 g/ha): 30% | % visual injury Ob ([3]; applied alone, 20 g/ha): 30% | % visual injury Ob [4]: 50% | % visual injury Ob ([5]; Compound A 20 g/ha): 30% | % visual injury Ob ([5]; applied alone, 20 g/ha): 30% | % visual injury Ob ([6]; Compound A 20 g/ha): 85% | % visual injury Ob ([6]; applied alone, 20 g/ha): 95% and 85% | % visual injury Ob ([7]; Compound A 20 g/ha): 95% | % visual injury Ob ([7]; applied alone, 20 g/ha): 95% | % visual injury Ob ([8]; Compound A 20 g/ha): 25% | % visual injury Ob ([8]; applied alone, 20 g/ha): 25% | % visual injury Ob ([8]; applied alone, 40 g/ha): 25% | % visual injury Ob ([9]; 20 g/ha): 25% | % visual injury Ob ([9]; 40 g/ha): 23% and 30% | % visual injury Ob ([10]; Compound A 20 g/ha): 95% | % visual injury Ob ([10]; applied alone, 20 g/ha): 95% | % visual injury Ob ([11]; Compound A 20 g/ha): 95% | % visual injury Ob ([11]; applied alone, 20 g/ha): 95% | % visual injury Ob ([12]; Compound A 20 g/ha): 10% | % visual injury Ob ([12]; applied alone, 20 g/ha): 10% | % visual injury Ob ([13]; Compound A 20 g/ha): 85% | % visual injury Ob ([13]; applied alone, 20 g/ha): 85% | % visual injury Ob ([14]; Compound A 20 g/ha): 5% | % visual injury Ob ([14]; applied alone, 20 g/ha): 5% | % visual injury Ob ([15]; Compound A 20 g/ha): 90% | % visual injury Ob ([15]; applied alone, 20 g/ha): 90% | % visual injury Ob ([16]; Compound A 20 g/ha): 97% | % visual injury Ob ([16]; applied alone, 20 g/ha): 97% | % visual injury Ob ([17]; 20 g/ha): 0% | % visual injury Ob ([17]; 40 g/ha): 17% | % visual injury Ob ([18]; Compound A 20 g/ha): 13% | % visual injury Ob ([18]; applied alone, 20 g/ha): 13% | % visual injury Ob ([18]; applied alone, 40 g/ha): 55% | % visual injury Ob ([19]; Compound A 20 g/ha): 30% | % visual injury Ob ([19]; applied alone, 20 g/ha): 30% | % visual injury Ob ([19]; applied alone, 40 g/ha): 73% | % visual injury Ob ([20]; Compound A 20 g/ha): 60% | % visual injury Ob ([20]; applied alone, 20 g/ha): 60% | % visual injury Ob ([21]; Compound A 20 g/ha): 65% | % visual injury Ob ([21]; applied alone, 20 g/ha): 65% | % visual injury Ob ([22]; Compound A 20 g/ha): 95% | % visual injury Ob ([22]; applied alone, 20 g/ha): 95% | % visual injury Ob ([22]; applied alone, 40 g/ha): 100% | % visual injury Ob [23]: 60% | % visual injury Ob ([24]; Compound A 20 g/ha): 0% | % visual injury Ob ([24]; applied alone, 20 g/ha): 0% | % visual injury Ob ([25]; Compound A 20 g/ha): 88% | % visual injury Ob ([25]; applied alone, 20 g/ha): 88% | % visual injury Ob ([26]; Compound A 20 g/ha): 0% | % visual injury Ob ([26]; applied alone, 20 g/ha): 0% | % visual injury Ob ([27]; Compound A 20 g/ha): 100% | % visual injury Ob ([27]; applied alone, 20 g/ha): 100% | % visual injury Ob ([28]; Compound A 20 g/ha): 0% | % visual injury Ob ([28]; applied alone, 20 g/ha): 0% | % visual injury Ob ([29]; Compound A 20 g/ha): 93% | % visual injury Ob ([29]; applied alone, 20 g/ha): 93% | % visual injury Ob ([29]; applied alone, 40 g/ha): 100%
